Measurements published in ChEMBL document CHEMBL4387741, “Optimization of novel reversible Bruton's tyrosine kinase inhibitors identified using Tethering-fragment-based screens” (Bioorg Med Chem, 2019).

What was measured:
[1] = tested on: Tyrosine-protein kinase ABL1 (Homo sapiens), P00519 [T315I]; experiment: Inhibition of human phosphorylated ABL1 T315I mutant (S229 to K512 residues) expressed in mammalian expression system at 1 uM by Kinomescan method relative to control
[2] = biological target: Cyclin-dependent kinase-like 3 (Homo sapiens) (UniProt Q8IVW4); experiment: Inhibition of wild-type human partial length CDKL3 (M1 to D327 residues) expressed in bacterial expression system at 1 uM by Kinomescan method relative to control
[3] = biological target: Ephrin type-A receptor 6 (Homo sapiens) (UniProt Q9UF33); experiment: Inhibition of wild-type human partial length EPHA6 (Y700 to E1046 residues) expressed in bacterial expression system at 1 uM by Kinomescan method relative to control
Chain of Ephrin type-A receptor 6 (Homo sapiens) (Q9UF33 whole entry, the tested form may be a part): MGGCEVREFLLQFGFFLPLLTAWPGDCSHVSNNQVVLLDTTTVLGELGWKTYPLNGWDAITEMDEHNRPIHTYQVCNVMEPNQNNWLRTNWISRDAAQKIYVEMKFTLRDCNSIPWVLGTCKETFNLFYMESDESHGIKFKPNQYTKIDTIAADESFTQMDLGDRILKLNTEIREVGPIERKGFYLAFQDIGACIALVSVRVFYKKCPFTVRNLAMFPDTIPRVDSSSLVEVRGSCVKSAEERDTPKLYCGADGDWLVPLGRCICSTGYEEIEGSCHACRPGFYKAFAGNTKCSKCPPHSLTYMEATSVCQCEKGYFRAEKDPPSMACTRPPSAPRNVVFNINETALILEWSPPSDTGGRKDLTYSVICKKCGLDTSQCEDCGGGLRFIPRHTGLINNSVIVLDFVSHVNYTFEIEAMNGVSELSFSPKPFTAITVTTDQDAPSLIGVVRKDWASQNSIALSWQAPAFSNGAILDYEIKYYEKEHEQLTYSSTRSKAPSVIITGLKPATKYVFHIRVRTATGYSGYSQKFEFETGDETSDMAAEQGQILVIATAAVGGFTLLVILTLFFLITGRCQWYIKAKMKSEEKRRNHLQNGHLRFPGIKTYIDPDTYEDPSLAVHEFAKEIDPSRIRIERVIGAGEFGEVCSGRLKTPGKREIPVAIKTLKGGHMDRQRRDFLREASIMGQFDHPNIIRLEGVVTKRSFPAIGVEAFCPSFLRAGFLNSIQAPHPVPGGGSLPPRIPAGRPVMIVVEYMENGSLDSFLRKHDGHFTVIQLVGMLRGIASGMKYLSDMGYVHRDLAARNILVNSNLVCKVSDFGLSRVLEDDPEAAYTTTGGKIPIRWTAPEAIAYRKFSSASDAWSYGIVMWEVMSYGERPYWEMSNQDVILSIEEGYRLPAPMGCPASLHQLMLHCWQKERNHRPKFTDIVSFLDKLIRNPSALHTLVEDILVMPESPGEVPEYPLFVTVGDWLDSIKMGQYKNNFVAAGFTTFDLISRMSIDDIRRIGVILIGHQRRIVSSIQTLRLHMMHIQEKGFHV

[4] = biological target: Ephrin type-A receptor 7 (Homo sapiens) (UniProt Q15375); experiment: Inhibition of wild-type human partial length EPHA7 (Y608 to S912 residues) expressed in bacterial expression system at 1 uM by Kinomescan method relative to control
[5] = biological target: Ephrin type-B receptor 2 (Homo sapiens) (UniProt P29323); experiment: Inhibition of wild-type human partial length EPHB2 (I597 to L902 residues) expressed in bacterial expression system at 1 uM by Kinomescan method relative to control
[6] = biological target: Insulin receptor-related protein (Homo sapiens) (UniProt P14616); experiment: Inhibition of wild-type human partial length INSRR (R950 to E1278 residues) expressed in bacterial expression system at 1 uM by Kinomescan method relative to control
[7] = biological target: Interleukin-1 receptor-associated kinase 1 (Homo sapiens) (UniProt P51617); experiment: Inhibition of wild-type human partial length IRAK1 (R194 to S712 residues) expressed in mammalian expression system at 1 uM by Kinomescan method relative to control
[8] = tested on: Mast/stem cell growth factor receptor Kit (Homo sapiens), P10721 [D816V]; experiment: Inhibition of human partial length KIT D816V mutant (I571 to D952 residues) expressed in bacterial expression system at 1 uM by Kinomescan method relative to control
[9] = biological target: Myosin-IIIa (Homo sapiens) (UniProt Q8NEV4); experiment: Inhibition of wild-type human partial length MYO3A (M1 to K338 residues) expressed in bacterial expression system at 1 uM by Kinomescan method relative to control
Chain of Myosin-IIIa (Homo sapiens) (Q8NEV4 whole entry, the tested form may be a part): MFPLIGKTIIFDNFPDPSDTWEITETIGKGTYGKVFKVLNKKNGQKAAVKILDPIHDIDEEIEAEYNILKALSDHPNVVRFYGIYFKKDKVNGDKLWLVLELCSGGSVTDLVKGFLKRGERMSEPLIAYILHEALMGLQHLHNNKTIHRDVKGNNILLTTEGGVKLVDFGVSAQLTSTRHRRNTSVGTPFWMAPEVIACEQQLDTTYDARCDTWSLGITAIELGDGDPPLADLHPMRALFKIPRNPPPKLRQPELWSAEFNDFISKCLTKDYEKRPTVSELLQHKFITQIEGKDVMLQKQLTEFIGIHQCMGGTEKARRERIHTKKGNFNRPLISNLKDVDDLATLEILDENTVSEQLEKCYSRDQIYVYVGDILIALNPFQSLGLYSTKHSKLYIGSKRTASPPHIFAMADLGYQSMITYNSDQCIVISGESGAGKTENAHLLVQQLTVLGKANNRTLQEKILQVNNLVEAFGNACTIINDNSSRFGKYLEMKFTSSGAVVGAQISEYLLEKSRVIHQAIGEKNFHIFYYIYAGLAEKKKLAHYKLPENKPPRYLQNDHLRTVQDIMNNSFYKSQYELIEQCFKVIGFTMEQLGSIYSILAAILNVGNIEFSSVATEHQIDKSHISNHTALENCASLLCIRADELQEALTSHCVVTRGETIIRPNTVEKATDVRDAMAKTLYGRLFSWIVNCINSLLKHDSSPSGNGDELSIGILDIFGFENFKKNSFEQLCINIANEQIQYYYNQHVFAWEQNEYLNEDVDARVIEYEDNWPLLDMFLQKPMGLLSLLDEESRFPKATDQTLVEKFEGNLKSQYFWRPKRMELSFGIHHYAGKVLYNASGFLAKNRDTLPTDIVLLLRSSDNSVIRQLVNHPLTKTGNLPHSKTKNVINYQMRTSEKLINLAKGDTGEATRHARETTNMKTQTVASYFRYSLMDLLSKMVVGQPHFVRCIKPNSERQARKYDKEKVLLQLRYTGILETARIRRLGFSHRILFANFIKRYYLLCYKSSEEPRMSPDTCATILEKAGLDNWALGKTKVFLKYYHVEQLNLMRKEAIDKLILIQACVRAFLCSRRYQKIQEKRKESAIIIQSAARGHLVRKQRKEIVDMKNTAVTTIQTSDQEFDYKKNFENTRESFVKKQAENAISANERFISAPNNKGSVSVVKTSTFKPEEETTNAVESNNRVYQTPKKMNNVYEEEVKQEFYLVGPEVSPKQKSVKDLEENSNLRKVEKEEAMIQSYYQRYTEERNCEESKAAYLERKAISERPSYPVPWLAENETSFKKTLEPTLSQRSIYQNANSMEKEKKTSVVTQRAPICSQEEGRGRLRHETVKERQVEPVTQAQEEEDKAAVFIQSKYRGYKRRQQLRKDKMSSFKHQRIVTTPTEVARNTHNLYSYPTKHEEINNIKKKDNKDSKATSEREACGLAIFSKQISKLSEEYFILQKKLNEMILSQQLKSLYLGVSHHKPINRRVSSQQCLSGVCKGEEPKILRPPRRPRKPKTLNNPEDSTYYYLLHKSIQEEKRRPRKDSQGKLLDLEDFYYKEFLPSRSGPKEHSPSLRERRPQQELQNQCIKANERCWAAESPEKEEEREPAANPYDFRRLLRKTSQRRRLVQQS

[10] = biological target: Serine/threonine-protein kinase PAK 2 (Homo sapiens) (UniProt Q13177); experiment: Inhibition of wild-type human partial length PAK2 (P151 to R525 residues) expressed in bacterial expression system at 1 uM by Kinomescan method relative to control
[11] = biological target: Proto-oncogene tyrosine-protein kinase receptor Ret (Homo sapiens) (UniProt P07949); experiment: Inhibition of wild-type human partial length RET (E713 to D1014 residues) expressed in bacterial expression system at 1 uM by Kinomescan method relative to control
[12] = biological target: Ribosomal protein S6 kinase alpha-4 (Homo sapiens) (UniProt O75676); experiment: Inhibition of wild-type human partial length N-terminal RPS6KA4 kinase domain 1 expressed in bacterial expression system at 1 uM by Kinomescan method relative to control
[13] = biological target: Serine/threonine-protein kinase Sgk3 (Homo sapiens) (UniProt Q96BR1); experiment: Inhibition of wild-type human partial length SGK3 (M119 to L496 residues) expressed in mammalian expression system at 1 uM by Kinomescan method relative to control
[14] = biological target: Tyrosine-protein kinase Yes (Homo sapiens) (UniProt P07947); experiment: Inhibition of wild-type human partial length YES (T257 to L543 residues) expressed in bacterial expression system at 1 uM by Kinomescan method relative to control
[15] = biological target: AP2-associated protein kinase 1 (Homo sapiens) (UniProt Q2M2I8); experiment: Inhibition of human wild-type AAK1 (G25 to L333 residues) expressed in bacterial expression system at 10 uM by Kinomescan method relative to control
Chain of AP2-associated protein kinase 1 (Homo sapiens) (Q2M2I8 whole entry, looked up, the tested form may be a part): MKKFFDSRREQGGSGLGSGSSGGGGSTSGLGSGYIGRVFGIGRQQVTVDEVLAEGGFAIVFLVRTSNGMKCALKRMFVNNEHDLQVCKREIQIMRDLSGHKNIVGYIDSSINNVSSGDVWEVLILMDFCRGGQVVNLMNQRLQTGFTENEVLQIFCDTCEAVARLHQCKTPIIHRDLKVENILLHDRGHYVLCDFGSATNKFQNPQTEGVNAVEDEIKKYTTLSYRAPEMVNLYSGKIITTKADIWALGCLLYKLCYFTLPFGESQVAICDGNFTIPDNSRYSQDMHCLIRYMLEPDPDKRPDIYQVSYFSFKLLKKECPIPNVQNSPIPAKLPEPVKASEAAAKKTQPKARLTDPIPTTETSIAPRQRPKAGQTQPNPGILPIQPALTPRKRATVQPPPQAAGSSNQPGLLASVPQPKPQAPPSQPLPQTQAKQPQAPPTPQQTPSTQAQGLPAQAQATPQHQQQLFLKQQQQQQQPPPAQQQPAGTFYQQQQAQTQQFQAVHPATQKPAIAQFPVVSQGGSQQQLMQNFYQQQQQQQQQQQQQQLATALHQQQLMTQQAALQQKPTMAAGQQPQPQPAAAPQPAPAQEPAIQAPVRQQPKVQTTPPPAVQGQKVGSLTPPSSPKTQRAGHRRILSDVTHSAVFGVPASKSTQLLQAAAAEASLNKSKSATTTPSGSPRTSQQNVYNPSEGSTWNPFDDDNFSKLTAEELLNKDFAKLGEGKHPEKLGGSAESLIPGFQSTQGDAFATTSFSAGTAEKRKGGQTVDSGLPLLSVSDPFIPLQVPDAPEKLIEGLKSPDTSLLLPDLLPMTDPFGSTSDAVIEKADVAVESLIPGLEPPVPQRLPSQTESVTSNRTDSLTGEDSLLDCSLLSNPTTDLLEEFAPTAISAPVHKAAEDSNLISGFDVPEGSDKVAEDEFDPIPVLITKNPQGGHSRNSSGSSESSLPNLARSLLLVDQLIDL

[16] = biological target: Activin receptor type-2B (Homo sapiens) (UniProt Q13705); experiment: Inhibition of wild-type human ACVR2B (H169 to D504 residues) expressed in bacterial expression system at 10 uM by Kinomescan method relative to control
[17] = biological target: Cyclin-dependent kinase 2 (Homo sapiens) (UniProt P24941); experiment: Inhibition of wild-type human full length CDK2 (M1 to L298 residues) expressed in bacterial expression system at 10 uM by Kinomescan method relative to control
[18] = tested on: Epidermal growth factor receptor (Homo sapiens), P00533 [G719S]; experiment: Inhibition of human partial length EGFR G719S mutant (R669 to V1011 residues) expressed in bacterial expression system at 10 uM by Kinomescan method relative to control
[19] = biological target: Mitogen-activated protein kinase 6 (Homo sapiens) (UniProt Q16659); experiment: Inhibition of wild-type human partial length ERK3 (M1 to P413 residues) expressed in bacterial expression system at 10 uM by Kinomescan method relative to control
[20] = biological target: Fibroblast growth factor receptor 3 (Homo sapiens) (UniProt P22607); experiment: Inhibition of wild-type human partial length FGFR3 (R442 to S771 residues) expressed in bacterial expression system at 10 uM by Kinomescan method relative to control
[21] = biological target: Insulin-like growth factor 1 receptor (Homo sapiens) (UniProt P08069); experiment: Inhibition of wild-type human partial length IGF1R (L972 to D1294 residues) expressed in bacterial expression system at 10 uM by Kinomescan method relative to control
[22] = biological target: Tyrosine-protein kinase JAK1 (Homo sapiens) (UniProt P23458); experiment: Inhibition of wild-type human partial length JAK1 JH2 pseudokinase domain (R537 to D855 residues) expressed in mammalian expression system at 10 uM by Kinomescan method relative to control
Chain of Tyrosine-protein kinase JAK1 (Homo sapiens) (P23458 whole entry, the tested form may be a part): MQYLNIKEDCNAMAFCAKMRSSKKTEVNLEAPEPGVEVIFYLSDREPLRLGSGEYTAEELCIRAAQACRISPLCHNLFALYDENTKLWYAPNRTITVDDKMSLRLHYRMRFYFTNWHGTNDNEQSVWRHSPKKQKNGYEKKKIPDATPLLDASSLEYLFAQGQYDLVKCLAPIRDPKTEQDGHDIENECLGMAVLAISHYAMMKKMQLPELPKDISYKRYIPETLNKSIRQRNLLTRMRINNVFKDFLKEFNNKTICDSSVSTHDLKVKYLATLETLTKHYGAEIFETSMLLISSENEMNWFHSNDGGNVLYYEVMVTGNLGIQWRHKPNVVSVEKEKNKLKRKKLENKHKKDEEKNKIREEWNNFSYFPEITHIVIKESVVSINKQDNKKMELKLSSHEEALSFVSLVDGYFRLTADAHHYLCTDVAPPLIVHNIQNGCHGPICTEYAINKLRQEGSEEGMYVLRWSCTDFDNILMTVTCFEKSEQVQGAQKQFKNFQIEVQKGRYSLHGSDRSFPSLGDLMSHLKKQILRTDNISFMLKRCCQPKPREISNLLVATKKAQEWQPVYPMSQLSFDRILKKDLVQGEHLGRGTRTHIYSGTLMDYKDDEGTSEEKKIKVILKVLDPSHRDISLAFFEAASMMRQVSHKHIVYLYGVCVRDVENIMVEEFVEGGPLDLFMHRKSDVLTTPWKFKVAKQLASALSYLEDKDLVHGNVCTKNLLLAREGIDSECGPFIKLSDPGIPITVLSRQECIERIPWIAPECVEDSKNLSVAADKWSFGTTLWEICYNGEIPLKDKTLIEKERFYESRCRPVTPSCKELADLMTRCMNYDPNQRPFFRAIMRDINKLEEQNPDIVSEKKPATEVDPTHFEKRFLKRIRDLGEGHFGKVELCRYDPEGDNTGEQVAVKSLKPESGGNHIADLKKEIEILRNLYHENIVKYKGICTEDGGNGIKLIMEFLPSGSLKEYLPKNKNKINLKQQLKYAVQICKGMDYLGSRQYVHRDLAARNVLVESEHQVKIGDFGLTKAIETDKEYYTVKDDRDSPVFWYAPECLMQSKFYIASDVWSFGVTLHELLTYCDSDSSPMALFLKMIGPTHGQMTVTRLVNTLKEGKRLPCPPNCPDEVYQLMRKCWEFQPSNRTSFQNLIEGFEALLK

[23] = biological target: Myosin light chain kinase 2, skeletal/cardiac muscle (Homo sapiens) (UniProt Q9H1R3); experiment: Inhibition of wild-type human partial length MYLK2 (D258 to K570 residues) expressed in bacterial expression system at 10 uM by Kinomescan method relative to control
[24] = biological target: Serine/threonine-protein kinase Nek11 (Homo sapiens) (UniProt Q8NG66); experiment: Inhibition of wild-type human partial length NEK11 (M1 to E313 residues) expressed in mammalian expression system at 10 uM by Kinomescan method relative to control
[25] = biological target: Serine/threonine-protein kinase Nek9 (Homo sapiens) (UniProt Q8TD19); experiment: Inhibition of wild-type human partial length NEK9 (P32 to R328 residues) expressed in bacterial expression system at 10 uM by Kinomescan method relative to control
[26] = biological target: cAMP-dependent protein kinase catalytic subunit alpha (Homo sapiens) (UniProt P17612); experiment: Inhibition of wild-type human partial length PKAC-alpha (G10 to F351 residues) expressed in bacterial expression system at 10 uM by Kinomescan method relative to control
[27] = biological target: Serine/threonine-protein kinase TAO1 (Homo sapiens) (UniProt Q7L7X3); experiment: Inhibition of wild-type human partial length TAOK1 (M1 to A320 residues) expressed in mammalian expression system at 10 uM by Kinomescan method relative to control

Structure (SMILES): O=C(Nc1cccc([C@@H]2CN(c3ncnc4[nH]ccc34)CCN2CCO)c1)Nc1c(F)cccc1N1CCCC1
- inhibition [1]: 93%
- inhibition [2]: 100%
- inhibition [3]: 99%
- inhibition [4]: 100%
- inhibition [5]: 85%
- inhibition [6]: 100%
- inhibition [7]: 92%
- inhibition [8]: 2%
- inhibition [9]: 82%
- inhibition [10]: 87%
- inhibition [11]: 0.3%
- inhibition [12]: 94%
- inhibition [13]: 84%
- inhibition [14]: 67%

Structure (SMILES): O=C(Nc1cccc([C@H]2CCCN(c3ncnc4[nH]ccc34)C2)c1)Nc1ccccc1N1CCCC1
- inhibition [15]: 26%
- inhibition [16]: 100%
- inhibition [17]: 67%
- inhibition [18]: 81%
- inhibition [19]: 100%
- inhibition [20]: 46%
- inhibition [21]: 100%
- inhibition [22]: 61%
- inhibition [23]: 58%
- inhibition [24]: 69%
- inhibition [25]: 95%
- inhibition [26]: 98%
- inhibition [27]: 62%
